Assay results from patent US20250302815A1, “PROTEIN TYROSINE PHOSPHATASE TARGETING LIGANDS” (CALICO LIFE SCIENCES LLC, priority 2021, published 2025).

Experiments:
[1] = target: T1, PTPN2 (B16F10.4 cells) (Mus musculus, UniProt Q06180); assay: HiBiT Degradation B16F10.4 PTPN2; type: cell-based; conditions: 24.0 hours
T1 construct: HiBiT; host or cells: B16F10.4
T1 sequence (Q06180 1-406): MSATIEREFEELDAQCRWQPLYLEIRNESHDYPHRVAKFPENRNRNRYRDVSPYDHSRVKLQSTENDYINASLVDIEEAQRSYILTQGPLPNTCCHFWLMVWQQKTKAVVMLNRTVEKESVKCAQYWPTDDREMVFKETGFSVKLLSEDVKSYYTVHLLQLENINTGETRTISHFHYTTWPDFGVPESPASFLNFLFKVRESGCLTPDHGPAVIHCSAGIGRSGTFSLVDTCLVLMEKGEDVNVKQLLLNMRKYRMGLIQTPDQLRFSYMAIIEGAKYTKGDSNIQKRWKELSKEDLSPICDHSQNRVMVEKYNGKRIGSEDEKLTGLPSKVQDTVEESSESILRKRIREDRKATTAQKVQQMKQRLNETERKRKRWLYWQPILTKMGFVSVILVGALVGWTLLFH

[2] = system: MC-38 tumor; assay: syngeneic mouse tumor model, MC-38 tumor growth inhibition; type: in vivo; conditions: MC-38 tumor-bearing mice, mean tumor volume of 10 mice
From the text: Each point on the curve represents the mean of 10 tumor volume of 10 mice. Error bars depict the standard error of the mean. **=p<0.01.

[3] = target: T2, PTPN2 (HiBIT-PTPN2 in 293T.109 cells) (Homo sapiens, UniProt P17706); assay: HiBiT Degradation 293T.109 PTPN2 (Nano-Glo HiBiT Lytic Assay); type: cell-based; conditions: 24.0 hours
T2 construct: expressed in transfected cells; host or cells: 293T.109 (293T WT from ATCC)
T2 sequence (P17706 1-415): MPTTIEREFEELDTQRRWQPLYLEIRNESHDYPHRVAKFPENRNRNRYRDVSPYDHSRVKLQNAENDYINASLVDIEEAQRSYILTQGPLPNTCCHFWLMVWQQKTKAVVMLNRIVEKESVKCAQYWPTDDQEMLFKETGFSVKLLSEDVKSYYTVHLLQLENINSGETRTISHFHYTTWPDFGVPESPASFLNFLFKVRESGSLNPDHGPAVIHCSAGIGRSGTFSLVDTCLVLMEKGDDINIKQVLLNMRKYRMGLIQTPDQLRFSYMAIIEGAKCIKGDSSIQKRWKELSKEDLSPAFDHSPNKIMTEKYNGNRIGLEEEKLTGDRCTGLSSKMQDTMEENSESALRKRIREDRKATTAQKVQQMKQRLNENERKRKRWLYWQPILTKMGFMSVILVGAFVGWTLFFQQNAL
In short: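 Degradation read-out: lytic HiBiT luminescence after 24 h treatment (37 °C, 5% CO2) of 5000 293T cells per well expressing HiBiT-fused PTPN2 from an N-terminal tag. Dosing was 11 points, half-log steps down from 10 μM, in duplicate; vehicle-treated and no-reagent wells served as controls.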

[4] = system: MC-38 murine colon adenocarcinoma tumors; assay: In vivo efficacy in MC38 syngeneic tumor model; conditions: MC-38 tumor-bearing mice
Protocol: All experiments were conducted in compliance with AbbVie's Institutional Animal Care and Use Committee and the National Institutes of Health Guide for Care and Use of Laboratory Animals guidelines in a facility accredited by the Association for the Assessment and Accreditation of Laboratory Animal Care. C57Bl/6 female mice were obtained from Charles River (Wilmington, MA). The mice were group-housed 10 per cage. Food and water were available ad libitum. Animals were acclimated to the animal facilities for a period of at least one week prior to commencement of experiments. Animals were tested in the light phase of a 12-hour light: 12-hour dark schedule (lights on 0600 hours).
Cells were grown to passage 3 in vitro. A total of 1×10^5 viable MC-38 cells were inoculated subcutaneously into the right flank of female C57Bl/6 mice (7-12 weeks old) on Day 0. The injection volume was 0.1 mL and was composed of a 1:1 mixture of S-MEM and Matrigel® (Corning, NY, USA). […] The mean tumor volume (TV) at size match was approximately 139±45 mm^3. Following size match, treatments were initiated on the same day. Dosing of mice with Compound 187b (Example 187b) was conducted intravenously, weekly (QW) for 3 weeks. Mice were dosed (10 mg/kg/dose) with either Compound 187b or vehicle controls (n=10 mice/group). Compound 187b was formulated in 5% DMSO+10% PEG400+85% (35% HP-β-CD in water) and was dosed at 5 mL/kg. Anti-PD-1 and isotype antibodies were dosed at 5 mg/kg, […] at 4 day intervals (Q4Dx3). Antibodies were formulated in PBS and dosed at 10 mL/kg. Tumor volume was calculated three times weekly. Measurements of the length (L) and width (W) of the tumor were taken via electronic caliper and the volume was calculated according to the following equation: V=L×W^2/2 using Study Director Version 3.1.399.22 (Study log Systems, Inc, CA, USA). Mice were euthanized when tumor volume was […] or skin ulcerations occurred.

[5] = combination of anti-PD-1 antibody (5 mg/kg) with Compound 187b (10 mg/kg i.v. QWx3)
[6] = monotherapy, Compound 187b 10 mg/kg intravenously QW for 3 weeks, anti-PD-1 5 mg/kg intraperitoneal every 4 days

| DC50 [1] [nM] | DC50 [3] [nM] | SMILES | further results |
| --- | --- | --- | --- |
| < 50 | < 50 | CC1(C)C[C@@H](Nc2cccc(-c3sc(C(=O)O)c(OCC(=O)O)c3Cl)c2)CCN1S(=O)(=O)Cc1cccc(NC(=O)N2CCC(c3ccc4c5c(cccc35)C(=O)N4[C@H]3CCC(=O)NC3=O)CC2)c1 (single isomer, unassigned) [Example 187b] | anticancer and tumor growth inhibition activity in vivo ([2]; in combination with anti-PD-1 therapy (Q4Dx2)): tumor growth inhibition; anticancer and tumor growth inhibition activity in vivo ([2]; monotherapy, QWx3): tumor growth inhibition; tolerability ([4]; 10 mg/kg intravenously QW for 3 weeks): well tolerated; TGIMax (maximal tumor growth inhibition) [4, 5]: 98%; mice achieving cures [4, 5]: 90%; TGIMax (maximal tumor growth inhibition) [4, 6]: 75%; mice achieving complete cures [4, 6]: 10%; tumor response ([4]; within 7-10 days of monotherapy treatment): apparent tumor stasis and shrinkage |
| ≥ 1000 | 50 to 200 | CC1(C)C[C@@H](Nc2cccc(-c3sc(C(=O)O)c(OCC(=O)O)c3Cl)c2)CCN1S(=O)(=O)Cc1cccc(NC(=O)C2CCN(C(=O)CNc3ccc4c(c3)C(=O)N(C3CCC(=O)NC3=O)C4=O)CC2)c1 (stereo partly drawn) [Example 43, 3-(carboxymethoxy)-4-chloro-5-[3-[[(4S)-1-[[3-[[1-[2-[[2-(2,6-dioxo-3-piperidyl)-1,3-dioxo-isoindolin-5-yl]amino]acetyl]piperidine-4-carbonyl]amino]phenyl]methylsulfonyl]-2,2-dimethyl-4-piperidyl]amino]phenyl]thiophene-2-carboxylic acid] |  |
| 200 to 1000 | 200 to 1000 | O=C(O)COc1c(C(=O)O)sc(-c2cccc(NC3CCN(S(=O)(=O)Cc4cccc(NC(=O)N5CCC(Oc6cccc7c6CN(C6CCC(=O)NC6=O)C7=O)CC5)c4)CC3)c2)c1Cl (stereo not shown) [Example 65] |  |
| 50 to 200 | < 50 | CCn1c(=O)n(C2CCC(=O)NC2=O)c2ccc(C3CCN(C(=O)Nc4cccc(CS(=O)(=O)N5CC[C@H](Nc6cccc(-c7sc(C(=O)O)c(OCC(=O)O)c7Cl)c6)CC5(C)C)c4)CC3)cc21 (stereo partly drawn) [Example 88, 3-(carboxymethoxy)-4-chloro-5-(3-(((4S)-1-((3-(4-(1-(2,6-dioxopiperidin-3-yl)-3-ethyl-2-oxo-2,3-dihydro-1H-benzo[d]imidazol-5-yl)piperidine-1-carboxamido)benzyl)sulfonyl)-2,2-dimethylpiperidin-4-yl)amino)phenyl)thiophene-2-carboxylic acid] |  |
| 200 to 1000 | < 50 | CC1(C)C[C@@H](Nc2cccc(-c3sc(C(=O)O)c(OCC(=O)O)c3Cl)c2F)CCN1S(=O)(=O)Cc1ccc(F)c(NC(=O)C2CN(C(=O)CNc3cccc4c3CN([C@H]3CCC(=O)NC3=O)C4=O)C2)c1 (single isomer, unassigned) [Example 148b] |  |
| 200 to 1000 | 200 to 1000 | CC1(C)C[C@@H](Nc2cccc(-c3sc(C(=O)O)c(OCC(=O)O)c3Cl)c2)CCN1S(=O)(=O)Cc1cccc(NC(=O)N2CCN(C(=O)CCc3cccc4c3CN(C3CCC(=O)NC3=O)C4=O)CC2)c1 (stereo partly shown) [Example 64] |  |
| 200 to 1000 | 200 to 1000 | CC1(C)C[C@@H](Nc2cccc(-c3sc(C(=O)O)c(OCC(=O)O)c3Cl)c2)CCN1S(=O)(=O)Cc1cccc(NC(=O)COc2cccc3c2CN(C2CCC(=O)NC2=O)C3=O)c1 (stereo partly drawn) [Example 29, 3-(carboxymethoxy)-4-chloro-5-[3-[[(4S)-1-[[3-[[2-[2-(2,6-dioxo-3-piperidyl)-1-oxo-isoindolin-4-yl]oxyacetyl]amino]phenyl]methylsulfonyl]-2,2-dimethyl-4-piperidyl]amino]phenyl]thiophene-2-carboxylic acid] |  |
| ≥ 1000 | 200 to 1000 | CN(C(=O)C1CCN(C(=O)CNc2cccc3c2CN(C2CCC(=O)NC2=O)C3=O)CC1)c1cccc(CS(=O)(=O)N2CC[C@H](Nc3cccc(-c4sc(C(=O)O)c(OCC(=O)O)c4Cl)c3)CC2(C)C)c1 (stereo partly drawn) [Example 67, 3-(carboxymethoxy)-4-chloro-5-(3-(((4S)-1-((3-(1-((2-(2,6-dioxopiperidin-3-yl)-1-oxoisoindolin-4-yl)glycyl)-N-methylpiperidine-4-carboxamido)benzyl)sulfonyl)-2,2-dimethylpiperidin-4-yl)amino)phenyl)thiophene-2-carboxylic acid] |  |
| 50 to 200 | 50 to 200 | CC1(C)C[C@@H](Nc2cccc(-c3sc(C(=O)O)c(OCC(=O)O)c3Cl)c2)CCN1S(=O)(=O)Cc1cccc(NC(=O)N2CCC(c3ccc4c(c3)oc(=O)n4C3CCC(=O)NC3=O)CC2)c1 (stereo partly drawn) [Example 68, 3-(carboxymethoxy)-4-chloro-5-[3-[[(4S)-1-[[3-[[4-[3-(2,6-dioxo-3-piperidyl)-2-oxo-1,3-benzoxazol-6-yl]piperidine-1-carbonyl]amino]phenyl]methylsulfonyl]-2,2-dimethyl-4-piperidyl]amino]phenyl]thiophene-2-carboxylic acid] |  |
| ≥ 1000 | 50 to 200 | CC1(C)C[C@H](Nc2cccc(-c3sc(C(=O)O)c(OCC(=O)O)c3Cl)c2)CCN1S(=O)(=O)Cc1ccc(F)c(NC(=O)C2CN(C(=O)CNc3cccc4c3CN(C3CCC(=O)NC3=O)C4=O)C2)c1 (stereo partly shown) [Example 108] |  |
| 200 to 1000 | 200 to 1000 | Cc1cc2cc(C3CCN(C(=O)Nc4cccc(CS(=O)(=O)N5CC[C@H](Nc6cccc(-c7sc(C(=O)O)c(OCC(=O)O)c7Cl)c6)CC5(C)C)c4)CC3)ccc2n1C1CCC(=O)NC1=O (stereo partly drawn) [Example 208, 3-(carboxymethoxy)-4-chloro-5-[3-[[(4S)-1-[[3-[[4-[1-(2,6-dioxo-3-piperidyl)-2-methyl-indol-5-yl]piperidine-1-carbonyl]amino]phenyl]methylsulfonyl]-2,2-dimethyl-4-piperidyl]amino]phenyl]thiophene-2-carboxylic acid] |  |
| 200 to 1000 | 50 to 200 | O=C(O)COc1c(C(=O)O)sc(-c2cccc(NC3CCN(S(=O)(=O)Cc4ccc(F)c(NC(=O)C5CN(C(=O)COc6cccc7c6CN(C6CCC(=O)NC6=O)C7=O)C5)c4)CC3)c2)c1Cl (stereo not shown) [Example 93] |  |
| 200 to 1000 | 50 to 200 | CC1(C)C[C@@H](Nc2cccc(-c3sc(C(=O)O)c(OCC(=O)O)c3Cl)c2)CCN1S(=O)(=O)Cc1cccc(NC(=O)OC2CCN(C(=O)CNc3cccc4c3CN(C3CCC(=O)NC3=O)C4=O)CC2)c1 (stereo partly shown) [Example 85] |  |
